{"source": "patent US6353028B2", "about": "“Composition and method for topically treating Peyronie's Disease, Dupuytren's hand contracture, Ledderhose Fibrosis, erectile dysfunction arising from plaque accumulations, and scarring” (priority 1998, dated 2002)", "origin": "cited, not measured here", "system": "Peyronie's disease", "settings": "intra-lesional injection", "data": [{"smiles": "COc1ccc(CCN(C)CCCC(C#N)(c2ccc(OC)c(OC)c2)C(C)C)cc1OC", "note": "(stereo not shown) [Verapamil]", "values": [{"measurement": "success of intra-lesional injections in Peyronie's disease", "result": "very limited success"}]}]}
